In brackets after ≈: the same amount, converted by molar mass.
Assays:
Streptococcus pneumoniae = experiment: Bacterial susceptibility testing in liquid media (MIC); type: cell-based; conditions: 37° C., 24 hrs, lowest concentration reducing growth by 80% or more, read-out: MIC against Streptococcus pneumoniae
Excerpt: Compounds may be tested for antimicrobial activity by susceptibility testing in liquid media. Compounds may be dissolved in dimethylsulfoxide and tested in 10 doubling dilutions in the susceptibility assays. The organisms used in the assay may be grown overnight on suitable agar media and then suspended in a liquid medium appropriate for the growth of the organism. The suspension can be a 0.5 McFarland and a further 1 in 10 dilution can be made into the same liquid medium to prepare the final organism suspension in 100 μL. Plates can be incubated under appropriate conditions at 37° C. for 24 hrs prior to reading. The Minimum Inhibitory Concentration (MIC) may be determined as the lowest drug concentration able to reduce growth by 80% or more.

S. aureus GyrB ATPase = S. aureus GyrB ATPase (Staphylococcus aureus, UniProt P0A0K8); experiment: S. aureus GyrB ATPase inhibition (ammonium molybdate/malachite green phosphate detection); type: biochemical; conditions: compound concentration of 1 μM
Sequence of S. aureus GyrB ATPase (P0AES4 whole entry): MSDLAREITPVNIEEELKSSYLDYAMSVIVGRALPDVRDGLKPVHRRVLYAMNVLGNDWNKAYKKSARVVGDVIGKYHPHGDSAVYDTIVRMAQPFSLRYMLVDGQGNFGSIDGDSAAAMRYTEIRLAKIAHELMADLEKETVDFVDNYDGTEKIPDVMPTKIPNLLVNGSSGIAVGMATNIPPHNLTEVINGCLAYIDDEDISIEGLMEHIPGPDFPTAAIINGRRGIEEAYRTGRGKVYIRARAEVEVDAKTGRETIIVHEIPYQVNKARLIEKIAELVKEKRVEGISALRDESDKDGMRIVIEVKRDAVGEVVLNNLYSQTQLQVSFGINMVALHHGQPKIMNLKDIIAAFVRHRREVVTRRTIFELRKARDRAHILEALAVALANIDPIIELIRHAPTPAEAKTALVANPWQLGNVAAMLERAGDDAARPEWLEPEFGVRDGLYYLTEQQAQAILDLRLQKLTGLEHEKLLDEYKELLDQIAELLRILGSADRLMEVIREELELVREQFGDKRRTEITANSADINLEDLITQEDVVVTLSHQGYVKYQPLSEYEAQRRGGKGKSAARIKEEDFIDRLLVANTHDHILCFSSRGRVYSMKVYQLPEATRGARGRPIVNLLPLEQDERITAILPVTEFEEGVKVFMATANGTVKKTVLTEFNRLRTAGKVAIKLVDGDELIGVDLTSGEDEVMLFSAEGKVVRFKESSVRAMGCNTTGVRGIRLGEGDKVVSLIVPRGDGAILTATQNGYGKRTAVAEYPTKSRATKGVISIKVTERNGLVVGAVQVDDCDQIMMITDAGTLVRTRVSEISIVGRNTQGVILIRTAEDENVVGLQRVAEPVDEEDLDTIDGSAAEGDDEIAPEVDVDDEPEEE
Sequence of S. aureus GyrB ATPase (P0A0K8 whole entry): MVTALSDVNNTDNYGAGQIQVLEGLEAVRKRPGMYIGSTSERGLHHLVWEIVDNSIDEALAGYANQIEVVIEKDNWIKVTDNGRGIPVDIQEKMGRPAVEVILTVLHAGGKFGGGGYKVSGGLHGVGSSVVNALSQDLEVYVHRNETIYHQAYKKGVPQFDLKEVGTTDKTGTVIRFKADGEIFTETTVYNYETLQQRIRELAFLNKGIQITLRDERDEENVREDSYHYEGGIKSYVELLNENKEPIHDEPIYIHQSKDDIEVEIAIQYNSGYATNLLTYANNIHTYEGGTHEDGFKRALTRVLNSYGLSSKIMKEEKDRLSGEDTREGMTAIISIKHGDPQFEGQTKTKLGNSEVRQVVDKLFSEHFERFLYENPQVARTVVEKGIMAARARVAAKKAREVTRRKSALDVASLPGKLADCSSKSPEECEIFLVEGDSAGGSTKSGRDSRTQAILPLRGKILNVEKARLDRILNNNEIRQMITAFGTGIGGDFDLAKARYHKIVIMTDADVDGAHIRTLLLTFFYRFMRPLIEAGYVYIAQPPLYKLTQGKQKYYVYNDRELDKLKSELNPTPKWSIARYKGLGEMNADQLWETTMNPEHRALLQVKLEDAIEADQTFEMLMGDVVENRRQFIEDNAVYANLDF
Method in brief: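 E. coli GyrA and S. aureus GyrB (250 pM each) with sheared salmon sperm DNA and 250 μM ATP, pH 7.5 Hepes buffer. Released phosphate detected by malachite green/ammonium molybdate at 650 nm; percent inhibition at 1 μM compound unless noted, normalized to 2% DMSO (0%) and EDTA (100%) controls.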

Structure (SMILES) | MIC (Streptococcus pneumoniae) [µg/mL] | inhibition at 1 µM (S. aureus GyrB ATPase) [%]
COc1cc(OC)nc(-c2nc(N3CC[C@@H](NC(=O)c4[nH]c(C)c(Cl)c4Cl)[C@@H](OC)C3)sc2C(=O)O)n1 [Example 11, 2-((3S,4R)-4-{[(3,4-Dichloro-5-methyl-1H-pyrrol-2-yl)carbonyl]amino}-3-methoxypiperidin-1-yl)-4-(4,6-dimethoxypyrimidin-2-yl)-1,3-thiazole-5-carboxylic acid] | 0.06 (≈ 0.105 µM) | 92
Cc1[nH]c(C(=O)N[C@@H]2CCN(c3nc(-c4ccncn4)c(C(=O)O)s3)C[C@@H]2F)c(Cl)c1Cl [Example 5, 2-((3S,4R)-4-{[(3,4-Dichloro-5-methyl-1H-pyrrol-2-yl)carbonyl]amino}-3-fluoropiperidin-1-yl)-4-pyrimidin-4-yl-1,3-thiazole-5-carboxylic acid] |  | 99.4
COC(=O)c1sc(N2CC[C@@H](NC(=O)c3[nH]c(C)c(Cl)c3Cl)[C@@H](OC)C2)nc1-c1ncnn1C [Example 66] |  | 101
CCOC(=O)c1sc(N2CC[C@@H](NC(=O)c3[nH]c(C)c(Cl)c3Cl)[C@@H](OC)C2)nc1-c1ccccn1 [Example 48] |  | 100
CCOC(=O)c1sc(N2CC[C@@H](NC(=O)c3[nH]c(C)c(Cl)c3Cl)[C@@H](F)C2)nc1-c1ccncn1 [Example 46] |  | 102
CO[C@H]1CN(c2nc(-c3cn(C)nn3)c(C(=O)O)s2)CC[C@H]1NC(=O)c1[nH]c(C)c(Cl)c1Cl [Example 109, 2-((3S,4R)-4-(3,4-dichloro-5-methyl-1H-pyrrole-2-carboxamido)-3-methoxypiperidin-1-yl)-4-(1-methyl-1H-1,2,3-triazol-4-yl)thiazole-5-carboxylic acid] |  | 101
CO[C@H]1CN(c2nc(-c3ncnn3C)c(C(=O)O)s2)CC[C@H]1NC(=O)c1[nH]c(C)c(Cl)c1C#N [Example 121, 2-((3S,4R)-4-(4-chloro-3-cyano-5-methyl-1H-pyrrole-2-carboxamido)-3-methoxypiperidin-1-yl)-4-(1-methyl-1H-1,2,4-triazol-5-yl)thiazole-5-carboxylic acid] |  | 103
COCn1ccnc1-c1nc(N2CC[C@@H](NC(=O)c3[nH]c(C)c(Cl)c3Cl)[C@@H](OC)C2)sc1C(=O)OC [Example 58, methyl 2-((3S,4R)-4-{[(3,4-dichloro-5-methyl-1H-pyrrol-2-yl)carbonyl]amino}-3-methoxypiperidin-1-yl)-4-[1-(methoxymethyl)-1H-imidazol-2-yl]-1,3-thiazole-5-carboxylate] |  | 99.5
COCCn1ccnc1-c1nc(N2CC[C@@H](NC(=O)c3[nH]c(C)c(Cl)c3Cl)[C@@H](F)C2)sc1C(=O)O [Example 26, 2-((3S,4R)-4-{[(3,4-Dichloro-5-methyl-1H-pyrrol-2-yl)carbonyl]amino}-3-fluoropiperidin-1-yl)-4-[1-(2-methoxyethyl)-1H-imidazol-2-yl]-1,3-thiazole-5-carboxylic acid] |  | 97.4
